Read-outs that look alike come from different tables or passages of the source.
Experiments:
Experiment in all cases: biochemical
Parameters in all cases: DiscoveRx KINOMEscan active site-directed competition binding; percent of control kinase bound to immobilised ligand
PIK3CB = PIK3CB (Homo sapiens, UniProt P42338)
ULK2 = biological target: T1, ULK2 (Homo sapiens, UniProt Q8IYT8)
T1 sequence (Q8IYT8 1-1036): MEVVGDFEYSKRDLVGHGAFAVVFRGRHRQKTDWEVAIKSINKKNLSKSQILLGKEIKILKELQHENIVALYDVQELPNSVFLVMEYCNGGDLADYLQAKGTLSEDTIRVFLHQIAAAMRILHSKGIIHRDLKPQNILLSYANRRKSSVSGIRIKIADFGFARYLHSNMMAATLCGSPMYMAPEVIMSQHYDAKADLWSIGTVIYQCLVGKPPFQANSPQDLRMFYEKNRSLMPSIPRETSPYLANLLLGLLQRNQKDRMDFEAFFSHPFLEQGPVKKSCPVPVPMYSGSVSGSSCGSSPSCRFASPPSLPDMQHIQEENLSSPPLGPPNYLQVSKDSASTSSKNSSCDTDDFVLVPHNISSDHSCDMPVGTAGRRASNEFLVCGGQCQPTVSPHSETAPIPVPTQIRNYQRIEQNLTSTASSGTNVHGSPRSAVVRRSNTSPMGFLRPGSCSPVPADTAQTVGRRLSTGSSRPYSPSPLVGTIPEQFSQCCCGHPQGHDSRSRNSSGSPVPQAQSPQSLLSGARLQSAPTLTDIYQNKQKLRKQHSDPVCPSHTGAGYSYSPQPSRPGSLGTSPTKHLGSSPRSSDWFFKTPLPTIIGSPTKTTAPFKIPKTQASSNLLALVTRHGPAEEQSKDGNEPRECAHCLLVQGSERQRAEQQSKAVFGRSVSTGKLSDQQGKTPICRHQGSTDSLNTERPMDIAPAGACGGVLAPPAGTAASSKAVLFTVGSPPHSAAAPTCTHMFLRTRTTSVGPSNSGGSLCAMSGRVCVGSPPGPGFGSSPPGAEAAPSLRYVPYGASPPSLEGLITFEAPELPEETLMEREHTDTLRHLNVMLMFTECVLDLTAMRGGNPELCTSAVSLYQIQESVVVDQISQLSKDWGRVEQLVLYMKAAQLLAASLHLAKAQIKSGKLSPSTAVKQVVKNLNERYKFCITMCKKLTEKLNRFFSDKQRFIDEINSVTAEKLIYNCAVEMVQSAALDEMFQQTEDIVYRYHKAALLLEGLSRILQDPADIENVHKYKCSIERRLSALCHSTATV

CSNK2A1 = CSNK2A1 (Homo sapiens, UniProt P68400)
IKK-alpha = biological target: T2, IKK-alpha (Homo sapiens, UniProt O15111)
T2 construct: gene CHUK
T2 sequence (O15111 1-745): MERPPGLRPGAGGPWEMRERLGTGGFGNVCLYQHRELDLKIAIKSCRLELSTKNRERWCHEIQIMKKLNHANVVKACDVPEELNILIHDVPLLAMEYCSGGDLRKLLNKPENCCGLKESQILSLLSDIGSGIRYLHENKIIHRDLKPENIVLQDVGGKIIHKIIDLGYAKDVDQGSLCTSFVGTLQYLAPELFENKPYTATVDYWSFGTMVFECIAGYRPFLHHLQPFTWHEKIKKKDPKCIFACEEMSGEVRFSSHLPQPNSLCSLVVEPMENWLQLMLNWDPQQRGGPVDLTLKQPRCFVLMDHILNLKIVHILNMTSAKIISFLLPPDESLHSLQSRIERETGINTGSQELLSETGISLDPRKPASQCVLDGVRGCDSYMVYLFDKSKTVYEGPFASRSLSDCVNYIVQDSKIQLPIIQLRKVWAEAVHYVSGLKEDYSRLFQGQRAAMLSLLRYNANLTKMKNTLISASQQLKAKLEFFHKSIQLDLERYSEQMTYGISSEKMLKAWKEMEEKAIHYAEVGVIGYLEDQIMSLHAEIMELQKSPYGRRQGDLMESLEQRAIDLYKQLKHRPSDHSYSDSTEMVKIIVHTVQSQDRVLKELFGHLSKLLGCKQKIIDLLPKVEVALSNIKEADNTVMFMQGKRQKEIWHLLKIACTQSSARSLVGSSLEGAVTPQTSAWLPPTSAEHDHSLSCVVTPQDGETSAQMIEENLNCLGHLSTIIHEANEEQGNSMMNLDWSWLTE

NEK2 = biological target: T3, NEK2 (Homo sapiens, UniProt P51955)
T3 sequence (P51955 1-445): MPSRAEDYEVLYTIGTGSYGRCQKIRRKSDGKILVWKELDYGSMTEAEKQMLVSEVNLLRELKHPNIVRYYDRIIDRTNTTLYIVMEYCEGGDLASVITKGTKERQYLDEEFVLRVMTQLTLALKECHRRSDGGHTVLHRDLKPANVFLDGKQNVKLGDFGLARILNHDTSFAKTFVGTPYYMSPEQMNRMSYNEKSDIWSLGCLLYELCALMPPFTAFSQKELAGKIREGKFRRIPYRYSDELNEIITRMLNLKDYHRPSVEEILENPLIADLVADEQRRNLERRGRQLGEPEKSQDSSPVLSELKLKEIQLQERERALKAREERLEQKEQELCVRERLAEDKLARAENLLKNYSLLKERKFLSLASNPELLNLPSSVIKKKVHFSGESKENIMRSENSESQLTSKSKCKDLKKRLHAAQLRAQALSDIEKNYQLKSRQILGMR

MST3 = biological target: T4, MST3 (Homo sapiens, UniProt Q9Y6E0)
T4 construct: gene STK24

[1] = read-out: Niraparib (MK-4827) / %Ctrl @ 10000nM
[2] = read-out: Olaparib / %Ctrl @ 10000nM
[3] = read-out: Rucaparib / %Ctrl @ 10000nM, binding competition, % of control
[4] = read-out: Talazoparib (BMN 673) / %Ctrl @ 10000nM

Sequence of CSNK2A1 (P68400 whole entry): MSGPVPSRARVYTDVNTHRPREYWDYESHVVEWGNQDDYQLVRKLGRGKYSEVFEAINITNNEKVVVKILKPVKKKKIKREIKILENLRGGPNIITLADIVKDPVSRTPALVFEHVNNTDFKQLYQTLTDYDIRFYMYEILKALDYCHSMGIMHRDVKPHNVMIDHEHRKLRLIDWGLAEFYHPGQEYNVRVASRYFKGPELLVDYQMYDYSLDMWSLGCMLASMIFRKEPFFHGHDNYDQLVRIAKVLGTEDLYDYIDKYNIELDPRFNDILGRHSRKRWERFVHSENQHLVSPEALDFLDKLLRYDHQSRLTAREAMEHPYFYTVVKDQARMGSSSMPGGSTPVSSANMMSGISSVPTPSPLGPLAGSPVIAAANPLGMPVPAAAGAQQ
T4 sequence (Q9Y6E0 whole entry): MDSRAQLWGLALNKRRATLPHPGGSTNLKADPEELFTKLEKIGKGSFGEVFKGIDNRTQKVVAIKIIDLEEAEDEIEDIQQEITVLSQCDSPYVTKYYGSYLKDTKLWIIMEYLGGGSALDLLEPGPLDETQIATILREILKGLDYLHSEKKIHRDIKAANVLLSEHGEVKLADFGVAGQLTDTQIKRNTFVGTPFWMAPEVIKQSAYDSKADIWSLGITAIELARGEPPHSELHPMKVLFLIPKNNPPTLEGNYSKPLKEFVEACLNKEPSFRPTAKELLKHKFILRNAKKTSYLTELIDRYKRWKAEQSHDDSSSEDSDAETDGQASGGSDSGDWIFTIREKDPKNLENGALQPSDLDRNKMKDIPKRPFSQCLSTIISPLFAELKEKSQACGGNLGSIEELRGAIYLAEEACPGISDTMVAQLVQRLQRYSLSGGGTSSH
Sequence of PIK3CB (P42338 whole entry): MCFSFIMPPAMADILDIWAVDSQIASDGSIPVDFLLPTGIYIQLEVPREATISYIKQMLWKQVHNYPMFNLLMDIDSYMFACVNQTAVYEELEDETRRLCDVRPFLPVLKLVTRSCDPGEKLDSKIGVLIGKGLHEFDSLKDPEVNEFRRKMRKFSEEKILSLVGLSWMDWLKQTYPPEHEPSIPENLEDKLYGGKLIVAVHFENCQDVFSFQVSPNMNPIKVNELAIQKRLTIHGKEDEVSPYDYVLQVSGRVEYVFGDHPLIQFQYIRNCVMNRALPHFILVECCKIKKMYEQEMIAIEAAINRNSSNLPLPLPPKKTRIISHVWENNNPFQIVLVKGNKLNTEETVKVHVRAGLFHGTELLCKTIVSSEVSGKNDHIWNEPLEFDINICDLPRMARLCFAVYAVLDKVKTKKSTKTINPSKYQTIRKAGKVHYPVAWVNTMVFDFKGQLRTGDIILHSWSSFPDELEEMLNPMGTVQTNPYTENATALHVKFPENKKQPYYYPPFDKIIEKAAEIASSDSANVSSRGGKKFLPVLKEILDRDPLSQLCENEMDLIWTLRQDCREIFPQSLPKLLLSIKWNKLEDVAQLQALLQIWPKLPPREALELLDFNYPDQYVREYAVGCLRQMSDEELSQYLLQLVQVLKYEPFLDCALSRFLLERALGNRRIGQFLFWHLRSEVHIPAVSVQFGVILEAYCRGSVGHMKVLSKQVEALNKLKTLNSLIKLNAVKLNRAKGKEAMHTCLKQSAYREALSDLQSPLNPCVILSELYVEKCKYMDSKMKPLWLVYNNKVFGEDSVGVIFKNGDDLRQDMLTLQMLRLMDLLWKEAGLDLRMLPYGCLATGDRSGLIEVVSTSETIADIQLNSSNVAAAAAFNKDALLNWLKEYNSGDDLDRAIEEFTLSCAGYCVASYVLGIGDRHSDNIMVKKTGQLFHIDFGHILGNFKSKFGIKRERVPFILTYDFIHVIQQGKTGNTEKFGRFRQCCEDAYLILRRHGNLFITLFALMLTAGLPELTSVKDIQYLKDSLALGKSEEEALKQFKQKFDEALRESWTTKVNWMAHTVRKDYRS

NC(=O)c1cccc2cn(-c3ccc([C@@H]4CCCNC4)cc3)nc12 [Niraparib]
percent of control binding at 10 µM (PIK3CB; [1]): 100%
percent of control binding at 10 µM (ULK2; [1]): 93%
percent of control binding at 10 µM (CSNK2A1; [1]): 6.8%
percent of control binding at 10 µM (IKK-alpha; [1]): 100%
percent of control binding at 10 µM (NEK2; [1]): 98%
percent of control binding at 10 µM (MST3; [1]): 74%

O=C(c1cc(Cc2n[nH]c(=O)c3ccccc23)ccc1F)N1CCN(C(=O)C2CC2)CC1 [Olaparib]
percent of control binding at 10 µM (PIK3CB; [2]): 90%
percent of control binding at 10 µM (ULK2; [2]): 85%
percent of control binding at 10 µM (CSNK2A1; [2]): 88%
percent of control binding at 10 µM (IKK-alpha; [2]): 79%
percent of control binding at 10 µM (NEK2; [2]): 100%
percent of control binding at 10 µM (MST3; [2]): 99%

CNCc1ccc(-c2[nH]c3cc(F)cc4c3c2CCNC4=O)cc1 [Rucaparib]
percent of control binding at 10 µM (PIK3CB; [3]): 83%
percent of control binding at 10 µM (ULK2; [3]): 74%
percent of control binding at 10 µM (CSNK2A1; [3]): 2.2%
percent of control binding at 10 µM (IKK-alpha; [3]): 42%
percent of control binding at 10 µM (NEK2; [3]): 87%
percent of control binding at 10 µM (MST3; [3]): 89%

Cn1ncnc1[C@H]1c2n[nH]c(=O)c3cc(F)cc(c23)N[C@@H]1c1ccc(F)cc1 [Talazoparib]
percent of control binding at 10 µM (PIK3CB; [4]): 100%
percent of control binding at 10 µM (ULK2; [4]): 100%
percent of control binding at 10 µM (CSNK2A1; [4]): 98%
percent of control binding at 10 µM (IKK-alpha; [4]): 100%
percent of control binding at 10 µM (NEK2; [4]): 100%
percent of control binding at 10 µM (MST3; [4]): 99%
